target: T1, human PAH with the R408W mutation (Homo sapiens, UniProt P00439, R408W); assay: Cell Based Phenylalanine Flux Assay; details: A375 cells expressing R408W PAH; 24 hrs with compound, then 20 µM sepiapterin and 800 µM 13C9,15N-Phenylalanine for 4 hours; 13C-Tyrosine by LC-MS; average where tested multiple times; read-out: AC50;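 also: after compound treatment, cells received sepiapterin plus isotope-labelled Phenylalanine for 4 hours, then labelled Tyrosine in the medium was quantified, 10-point 2-fold dilution series run in duplicate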
T1 construct: expressed in transfected cells
T1 sequence (P00439 1-452 R408W): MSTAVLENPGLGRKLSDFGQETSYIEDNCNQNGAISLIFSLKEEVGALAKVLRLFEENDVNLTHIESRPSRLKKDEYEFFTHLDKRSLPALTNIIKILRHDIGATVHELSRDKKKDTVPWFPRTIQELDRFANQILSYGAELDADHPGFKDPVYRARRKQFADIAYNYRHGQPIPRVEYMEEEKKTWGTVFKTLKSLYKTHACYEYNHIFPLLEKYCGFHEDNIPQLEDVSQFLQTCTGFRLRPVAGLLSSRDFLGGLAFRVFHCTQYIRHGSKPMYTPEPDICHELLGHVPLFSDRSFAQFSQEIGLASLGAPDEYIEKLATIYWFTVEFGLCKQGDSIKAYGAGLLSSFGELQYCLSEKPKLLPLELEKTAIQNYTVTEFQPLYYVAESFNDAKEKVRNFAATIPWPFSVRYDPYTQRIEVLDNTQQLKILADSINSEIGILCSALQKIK

SMILES | AC50
Fc1ccc(-c2nnc(N3CCc4[nH]cnc4[C@@H]3c3cc4ccccn4n3)o2)nc1 (single isomer, unassigned) | > 5000 nM
COc1cccn2nc(C3c4nc[nH]c4CCN3C(=O)c3cnn4cc(-c5cnn(C)c5)ccc34)cc12 (stereo not drawn) | 1000 to 5000 nM
CC(C)(O)c1nnc(C(=O)N2CCc3[nH]cnc3C2c2cc3ccc(F)cn3n2)o1 (stereo not drawn) | 1000 to 5000 nM
Cc1nnc(CCC(=O)N2CCc3[nH]cnc3C2c2cc3ccccn3n2)s1 (stereo not drawn) | > 5000 nM
Cn1ccc(-c2nnc(C(=O)N3CCc4[nH]cnc4C3c3cc4cc(F)ccn4n3)o2)n1 (stereo not drawn) | 1000 to 5000 nM
O=C(c1cnc(-c2ncccn2)o1)N1CCc2[nH]cnc2C1c1cc2c(C(F)F)cccn2n1 (stereo not drawn) | > 5000 nM

same assay, conditions: A375 cells expressing human PAH R408W; 24 hrs compound incubation; 13C-Tyrosine by LC-MS; average where tested multiple times; read-out: AC50

SMILES | AC50
Cc1cccc(-c2nnc(N3CCc4[nH]cnc4[C@H]3c3cc4c(C(F)(F)F)cccn4n3)o2)n1 [Example 2357, (S)-2-(6-methylpyridin-2-yl)-5-(4-(4-(trifluoromethyl)pyrazolo[1,5-a]pyridin-2-yl)-1,4,6,7-tetrahydro-5H-imidazo[4,5-c]pyridin-5-yl)-1,3,4-oxadiazole] | 500 to 1000 nM
O=C(c1nnc(-c2ncccc2F)o1)N1CCc2[nH]cnc2[C@H]1c1cc2c(C3CC3)cccn2n1 [Example 1855, (S)-(4-(4-cyclopropylpyrazolo[1,5-a]pyridin-2-yl)-1,4,6,7-tetrahydro-5H-imidazo[4,5-c]pyridin-5-yl)(5-(3-fluoropyridin-2-yl)-1,3,4-oxadiazol-2-yl)methanone] | < 500 nM
O=C(c1nnc(-c2cnn(C(F)(F)F)c2)o1)N1CCc2[nH]cnc2[C@@H]1c1cc2cccc(C(F)(F)F)n2n1 [Example 2429, (R)-(5-(1-(trifluoromethyl)-1H-pyrazol-4-yl)-1,3,4-oxadiazol-2-yl)(4-(7-(trifluoromethyl)pyrazolo[1,5-a]pyridin-2-yl)-6,7-dihydro-1H-imidazo[4,5-c]pyridin-5(4H)-yl)methanone] | 1000 to 5000 nM
FC(F)Oc1cccn2nc([C@@H]3c4nc[nH]c4CCN3c3nnc(C(F)F)o3)cc12 [Example 2153, (S)-2-(4-(4-(difluoromethoxy)pyrazolo[1,5-a]pyridin-2-yl)-1,4,6,7-tetrahydro-5H-imidazo[4,5-c]pyridin-5-yl)-5-(difluoromethyl)-1,3,4-oxadiazole] | < 500 nM
Fc1cccc(N2CCc3[nH]cnc3[C@@H]2c2cc3ccccn3n2)n1 [Example 2134, (R)-5-(6-fluoropyridin-2-yl)-4-(pyrazolo[1,5-a]pyridin-2-yl)-4,5,6,7-tetrahydro-1H-imidazo[4,5-c]pyridine] | 1000 to 5000 nM
Cc1cccn2nc([C@H]3c4nc[nH]c4CCN3C(=O)c3cnc(-c4cnn(C)c4)o3)cc12 [Example 1961, (R)-(2-(1-methyl-1H-pyrazol-4-yl)oxazol-5-yl)(4-(4-methylpyrazolo[1,5-a]pyridin-2-yl)-1,4,6,7-tetrahydro-5H-imidazo[4,5-c]pyridin-5-yl)methanone] | > 5000 nM
CN(C)c1ccc2c(C(=O)N3CCc4[nH]cnc4[C@H]3c3cc4cccc(C(F)(F)F)n4n3)cnn2c1 [Example 2472, (S)-(6-(dimethylamino)pyrazolo[1,5-a]pyridin-3-yl)(4-(7-(trifluoromethyl)pyrazolo[1,5-a]pyridin-2-yl)-6,7-dihydro-1H-imidazo[4,5-c]pyridin-5(4H)-yl)methanone] | 1000 to 5000 nM
O=C(c1nnc(-c2cncnc2)o1)N1CCc2[nH]cnc2[C@@H]1c1cc2c(F)cccn2n1 [Example 1975, (R)-(4-(4-fluoropyrazolo[1,5-a]pyridin-2-yl)-1,4,6,7-tetrahydro-5H-imidazo[4,5-c]pyridin-5-yl)(5-(pyrimidin-5-yl)-1,3,4-oxadiazol-2-yl)methanone] | > 5000 nM
O=C(c1cnc(-c2cnccn2)o1)N1CCc2[nH]cnc2[C@H]1c1cc2c(C(F)(F)F)cccn2n1 [Example 2244, (S)-(2-(pyrazin-2-yl)oxazol-5-yl)(4-(4-(trifluoromethyl)pyrazolo[1,5-a]pyridin-2-yl)-1,4,6,7-tetrahydro-5H-imidazo[4,5-c]pyridin-5-yl)methanone] | 500 to 1000 nM
FC(F)(F)c1cnc(N2CCc3[nH]cnc3[C@H]2c2cc3c(C4CC4)cccn3n2)nc1 [Example 2174, (S)-4-(4-cyclopropylpyrazolo[1,5-a]pyridin-2-yl)-5-(5-(trifluoromethyl)pyrimidin-2-yl)-4,5,6,7-tetrahydro-1H-imidazo[4,5-c]pyridine] | < 500 nM
Cc1cccn2nc([C@@H]3c4nc[nH]c4CCN3c3cnccn3)cc12 [Example 1805, (S)-4-(4-methylpyrazolo[1,5-a]pyridin-2-yl)-5-(pyrazin-2-yl)-4,5,6,7-tetrahydro-1H-imidazo[4,5-c]pyridine] | < 500 nM

same assay, conditions: A375 cells expressing human R408W PAH; 24 hrs compound incubation; 13C-Tyrosine by LC-MS; average where tested multiple times; read-out: AC50

SMILES | AC50
Cc1nc([C@@H](C)O)oc1C(=O)N1CCc2[nH]cnc2[C@H]1c1cc2c(Cl)cccn2n1 [Example 706, ((S)-4-(4-chloropyrazolo[1,5-a]pyridin-2-yl)-6,7-dihydro-1H-imidazo[4,5-c]pyridin-5(4H)-yl)(2-((R)-1-hydroxyethyl)-4-methyloxazol-5-yl)methanone] | < 500 nM
COc1ccc(-c2nnc(C(=O)N3CCc4[nH]cnc4[C@@H]3c3cc4c(Cl)cccn4n3)o2)nc1 [Example 1298, (R)-(4-(4-chloropyrazolo[1,5-a]pyridin-2-yl)-6,7-dihydro-1H-imidazo[4,5-c]pyridin-5(4H)-yl)(5-(5-methoxypyridin-2-yl)-1,3,4-oxadiazol-2-yl)methanone] | 1000 to 5000 nM
O=C(c1nnc(-c2ccccn2)o1)N1CCc2[nH]cnc2[C@H]1c1cc2c(F)cccn2n1 [Example 733, (S)-(4-(4-fluoropyrazolo[1,5-a]pyridin-2-yl)-6,7-dihydro-1H-imidazo[4,5-c]pyridin-5(4H)-yl)(5-(pyridin-2-yl)-1,3,4-oxadiazol-2-yl)methanone] | < 500 nM
Cc1cccn2nc([C@@H]3c4nc[nH]c4CCN3C(=O)c3oc([C@@H](C)O)nc3C(F)F)cc12 [Example 738, (4-(difluoromethyl)-2-((R)-1-hydroxyethyl)oxazol-5-yl)((S)-4-(4-methylpyrazolo[1,5-a]pyridin-2-yl)-6,7-dihydro-1H-imidazo[4,5-c]pyridin-5(4H)-yl)methanone] | < 500 nM
O=C(c1nnc(-c2ccn(C(F)(F)F)n2)o1)N1CCc2[nH]cnc2[C@H]1c1cc2c(C(F)F)cccn2n1 [Example 1480, (S)-(4-(4-(difluoromethyl)pyrazolo[1,5-a]pyridin-2-yl)-6,7-dihydro-1H-imidazo[4,5-c]pyridin-5(4H)-yl)(5-(1-(trifluoromethyl)-1H-pyrazol-3-yl)-1,3,4-oxadiazol-2-yl)methanone] | < 500 nM
Cn1ccc(-c2nnc(C(=O)N3CCc4[nH]cnc4[C@H]3c3cc4ccc(F)cn4n3)o2)n1 [Example 1102, (S)-(4-(6-fluoropyrazolo[1,5-a]pyridin-2-yl)-6,7-dihydro-1H-imidazo[4,5-c]pyridin-5(4H)-yl)(5-(1-methyl-1H-pyrazol-3-yl)-1,3,4-oxadiazol-2-yl)methanone] | 500 to 1000 nM
Cc1cccn2nc([C@@H]3c4nc[nH]c4CCN3C(=O)c3cnn4cc(-c5ccn(C)n5)ccc34)cc12 [Example 1621, (S)-(6-(1-methyl-1H-pyrazol-3-yl)pyrazolo[1,5-a]pyridin-3-yl)(4-(4-methylpyrazolo[1,5-a]pyridin-2-yl)-6,7-dihydro-1H-imidazo[4,5-c]pyridin-5(4H)-yl)methanone] | < 500 nM

From patent publication US20230365592A1 (Agios Pharmaceuticals, Inc., priority 2022, published 2023)
